Results from US8192962B2, “Processes for detecting toxic substances” (Daikin Industries, Ltd., priority 2001, dated 2012).

Tested on: Transport facilitation protein genes
Assay: DNA chip mRNA expression in yeast, transport facilitation protein genes (Table 5)
Type: cell-based, Saccharomyces cerevisiae S288C
Method in brief: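 Measured as treated-to-untreated fluorescence ratio on a full-genome yeast DNA chip. Cells (S288C, YPD, 25° C.) were exposed in log phase for two hours to one chemical, dosed to curb growth without killing.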

`CCCCCCCCCCCCc1ccc(S(=O)(=O)[O-])cc1.[Na+]` [(17), sodium dodecylbenzosulfonate] was tested, and the “The level of expressed mRNA in the presence of chemical substance/The level of expressed mRNA in the absence of chemical substance” value (yeast gene YGR224W) was 2.8, the “The level of expressed mRNA in the presence of chemical substance/The level of expressed mRNA in the absence of chemical substance” value (yeast gene YGR260W) was 0.9 and the “The level of expressed mRNA in the presence of chemical substance/The level of expressed mRNA in the absence of chemical substance” value (yeast gene YGR281W) was 2.8. For the same compound, the “The level of expressed mRNA in the presence of chemical substance/The level of expressed mRNA in the absence of chemical substance” value (yeast gene YHL035C) was 1.1, the “The level of expressed mRNA in the presence of chemical substance/The level of expressed mRNA in the absence of chemical substance” value (yeast gene YHL040C) was 1.4 and the “The level of expressed mRNA in the presence of chemical substance/The level of expressed mRNA in the absence of chemical substance” value (yeast gene YHL047C) was 1.2. For the same compound, the “The level of expressed mRNA in the presence of chemical substance/The level of expressed mRNA in the absence of chemical substance” value (yeast gene YHR026W) was 0.9, the “The level of expressed mRNA in the presence of chemical substance/The level of expressed mRNA in the absence of chemical substance” value (yeast gene YHR092C) was 0.9 and the “The level of expressed mRNA in the presence of chemical substance/The level of expressed mRNA in the absence of chemical substance” value (yeast gene YHR094C) was 1.4. The “The level of expressed mRNA in the presence of chemical substance/The level of expressed mRNA in the absence of chemical substance” value (yeast gene YHR175W) was 1.3, the “The level of expressed mRNA in the presence of chemical substance/The level of expressed mRNA in the absence of chemical substance” value (yeast gene YIL006W) was 0.8 and the “The level of expressed mRNA in the presence of chemical substance/The level of expressed mRNA in the absence of chemical substance” value (yeast gene YIL022W) was 0.8. The “The level of expressed mRNA in the presence of chemical substance/The level of expressed mRNA in the absence of chemical substance” value (yeast gene YIL056W) was 1.5, the “The level of expressed mRNA in the presence of chemical substance/The level of expressed mRNA in the absence of chemical substance” value (yeast gene YIL088C) was 1.2 and the “The level of expressed mRNA in the presence of chemical substance/The level of expressed mRNA in the absence of chemical substance” value (yeast gene YJL034W) was 1.1. The “The level of expressed mRNA in the presence of chemical substance/The level of expressed mRNA in the absence of chemical substance” value (yeast gene YJL212C) was 0.6, the “The level of expressed mRNA in the presence of chemical substance/The level of expressed mRNA in the absence of chemical substance” value (yeast gene YJL219W) was 1.6 and the “The level of expressed mRNA in the presence of chemical substance/The level of expressed mRNA in the absence of chemical substance” value (yeast gene YJR077C) was 1.0. The “The level of expressed mRNA in the presence of chemical substance/The level of expressed mRNA in the absence of chemical substance” value (yeast gene YJR106W) was 1.2, the “The level of expressed mRNA in the presence of chemical substance/The level of expressed mRNA in the absence of chemical substance” value (yeast gene YJR121W) was 1.1 and the “The level of expressed mRNA in the presence of chemical substance/The level of expressed mRNA in the absence of chemical substance” value (yeast gene YKL016C) was 1.0. For the same compound, the “The level of expressed mRNA in the presence of chemical substance/The level of expressed mRNA in the absence of chemical substance” value (yeast gene YKL146W) was 1.0, the “The level of expressed mRNA in the presence of chemical substance/The level of expressed mRNA in the absence of chemical substance” value (yeast gene YKR039W) was 0.9 and the “The level of expressed mRNA in the presence of chemical substance/The level of expressed mRNA in the absence of chemical substance” value (yeast gene YKR067W) was 0.8. For the same compound, the “The level of expressed mRNA in the presence of chemical substance/The level of expressed mRNA in the absence of chemical substance” value (yeast gene YLL028W) was 1.2, the “The level of expressed mRNA in the presence of chemical substance/The level of expressed mRNA in the absence of chemical substance” value (yeast gene YLR081W) was 0.7 and the “The level of expressed mRNA in the presence of chemical substance/The level of expressed mRNA in the absence of chemical substance” value (yeast gene YLR295C) was 0.9. The “The level of expressed mRNA in the presence of chemical substance/The level of expressed mRNA in the absence of chemical substance” value (yeast gene YLR348C) was 1.1, the “The level of expressed mRNA in the presence of chemical substance/The level of expressed mRNA in the absence of chemical substance” value (yeast gene YLR378C) was 0.9 and the “The level of expressed mRNA in the presence of chemical substance/The level of expressed mRNA in the absence of chemical substance” value (yeast gene YMR011W) was 1.3. The “The level of expressed mRNA in the presence of chemical substance/The level of expressed mRNA in the absence of chemical substance” value (yeast gene YMR162C) was 0.8, the “The level of expressed mRNA in the presence of chemical substance/The level of expressed mRNA in the absence of chemical substance” value (yeast gene YMR203W) was 0.8 and the “The level of expressed mRNA in the presence of chemical substance/The level of expressed mRNA in the absence of chemical substance” value (yeast gene YNL055C) was 1.2. For the same compound, the “The level of expressed mRNA in the presence of chemical substance/The level of expressed mRNA in the absence of chemical substance” value (yeast gene YNL259C) was 2.6, the “The level of expressed mRNA in the presence of chemical substance/The level of expressed mRNA in the absence of chemical substance” value (yeast gene YNR072W) was 1.3 and the “The level of expressed mRNA in the presence of chemical substance/The level of expressed mRNA in the absence of chemical substance” value (yeast gene YOL119C) was 1.4. The “The level of expressed mRNA in the presence of chemical substance/The level of expressed mRNA in the absence of chemical substance” value (yeast gene YOL156W) was 0.9, the “The level of expressed mRNA in the presence of chemical substance/The level of expressed mRNA in the absence of chemical substance” value (yeast gene YOL163W) was 0.8 and the “The level of expressed mRNA in the presence of chemical substance/The level of expressed mRNA in the absence of chemical substance” value (yeast gene YOR035C) was 1.6. The “The level of expressed mRNA in the presence of chemical substance/The level of expressed mRNA in the absence of chemical substance” value (yeast gene YOR130C) was 1.5, the “The level of expressed mRNA in the presence of chemical substance/The level of expressed mRNA in the absence of chemical substance” value (yeast gene YOR153W) was 2.5 and the “The level of expressed mRNA in the presence of chemical substance/The level of expressed mRNA in the absence of chemical substance” value (yeast gene YOR273C) was 3.2. For the same compound, the “The level of expressed mRNA in the presence of chemical substance/The level of expressed mRNA in the absence of chemical substance” value (yeast gene YOR316C) was 0.8, the “The level of expressed mRNA in the presence of chemical substance/The level of expressed mRNA in the absence of chemical substance” value (yeast gene YOR332W) was 1.3 and the “The level of expressed mRNA in the presence of chemical substance/The level of expressed mRNA in the absence of chemical substance” value (yeast gene YOR348C) was 0.9. The “The level of expressed mRNA in the presence of chemical substance/The level of expressed mRNA in the absence of chemical substance” value (yeast gene YPL036W) was 0.4, the “The level of expressed mRNA in the presence of chemical substance/The level of expressed mRNA in the absence of chemical substance” value (yeast gene YPL134C) was 1.3 and the “The level of expressed mRNA in the presence of chemical substance/The level of expressed mRNA in the absence of chemical substance” value (yeast gene YPL271W) was 1.2. The “The level of expressed mRNA in the presence of chemical substance/The level of expressed mRNA in the absence of chemical substance” value (yeast gene YPR192W) was 1.6 and the “The level of expressed mRNA in the presence of chemical substance/The level of expressed mRNA in the absence of chemical substance” value (yeast gene YPR194C) was 1.0.
